The text below walks through data of US7691848B2, “Pyrrolobenzodiazepine arylcarboxamides and derivatives thereof as follicle-stimulating hormone receptor antagonists” (Wyeth, priority 2005, dated 2010).

Counter-ions that a name gives are not always drawn.

The target in series [1] is T1, human FSH receptor (Homo sapiens, UniProt P23945).
T1 construct: host or cells: CHO-K1 (CHO FSH-R 6CRE-Luc, 1D7 cells)
T1 sequence (P23945 18-695): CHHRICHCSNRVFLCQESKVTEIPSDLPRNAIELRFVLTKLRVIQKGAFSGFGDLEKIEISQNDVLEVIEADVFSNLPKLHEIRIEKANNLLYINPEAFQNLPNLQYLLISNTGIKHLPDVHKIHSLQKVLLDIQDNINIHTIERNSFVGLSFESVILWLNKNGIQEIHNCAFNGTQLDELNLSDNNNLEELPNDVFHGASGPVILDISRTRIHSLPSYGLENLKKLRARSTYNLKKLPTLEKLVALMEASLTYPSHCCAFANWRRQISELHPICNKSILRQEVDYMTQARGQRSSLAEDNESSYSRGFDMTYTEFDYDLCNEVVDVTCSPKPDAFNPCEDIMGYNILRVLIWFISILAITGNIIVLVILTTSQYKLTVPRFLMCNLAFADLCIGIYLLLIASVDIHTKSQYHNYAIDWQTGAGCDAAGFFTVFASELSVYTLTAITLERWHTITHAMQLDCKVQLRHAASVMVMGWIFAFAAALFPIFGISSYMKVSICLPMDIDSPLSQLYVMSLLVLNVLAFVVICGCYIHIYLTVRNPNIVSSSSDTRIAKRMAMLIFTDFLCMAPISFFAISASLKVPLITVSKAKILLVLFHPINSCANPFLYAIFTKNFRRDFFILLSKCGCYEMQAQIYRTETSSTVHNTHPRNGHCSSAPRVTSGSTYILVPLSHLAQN
Put plainly: Follicle-Stimulating Hormone Receptor-Dependent Cre-Luciferase Reporter Gene Assay (CHO FSH-R 6CRE-Luc cells). Type of series: cell-based. As to conditions: for IC50: dose-response format, in presence of EC50 of purified human FSH. An excerpt: Follicle-Stimulating Hormone Receptor-Dependent Cre-Luciferase Reporter Gene Assay for the Identification of Follicle-Stimulating Hormone (FSH) Antagonists
A Chinese hamster ovarian cell line that stably produces the human FSH receptor and a luciferase reporter gene regulated by cAMP response elements was used to identify and determine the relative potencies of human FSH receptor antagonists. See for example, Kelton, C. A., et al. Mol. Cell. Endocrinol. 89:141-151 (1992), Tilly, J. L., et al. Endocrinology 131:799-806(1992), and George, S. E., et al. J. Biomol. Screening 2:235-240 (1997).
Compound Vehicle: Stock compounds were solubilized in an appropriate vehicle, e.g., phosphate buffered saline (PBS) or dimethyl sulfoxide (DMSO), at 30 mM. The compounds were subsequently diluted in DMSO to working dilutions of 1 and 20 or 30 mM for 2-dose testing format and 1 μM-10 mM for dose-response format. The DMSO dilutions were diluted 500-fold in sterile growth medium [D-MEM/F-12 (GIBCO/BRL; Grand Island, NY) containing 15 mM HEPES, 2 mM 1-glutamine, pyridoxine hydrochloride, phenol red and 5% FetalClone® II (HyClone Laboratories, Inc; Logan, Utah), 0.2% DMSO, 100 units penicillin G/ml, and 100 μg streptomycin sulfate/ml (GIBCO/BRL)]. The concentration of the vehicle in each of the compound dilutions was the same.
Positive Controls: Purified human FSH (>98%) was purchased from Cortex Biochem, Inc. (San Leandro, Calif.) and 3-[(2S*,5R*)-5-{[2-(1H-Indol-3-yl)-ethylcarbamoyl]-methyl}-4-oxo-2-(5-phenylethynyl-thiophen-2-yl)-thiazolidin-3-yl]-benzamide (an FSH-R thiazolidinone antagonist) was prepared by processes described by R. A. Scheuerman et al. in U.S. Pat. No. 6,426,357 (Affymax).
The CHO FSH-R 6CRE-Luc cells (1D7 cells) were obtained from Affymax (Palo Alto, Calif.). These Chinese hamster ovary cells (CHO-K1) were engineered genetically to stably express the recombinant human FSH receptor gene and a luciferase reporter gene under the regulation of 6 copies of a cAMP response element. The cells were plated one day prior to treatment into 96-well white opaque plates at a density of 50,000 cells/100 μl/well in growth medium. On the day of treatment, the growth medium was removed from the wells by aspiration and 50 μl of fresh growth medium was added to each well. The cells were incubated at 37° C. in a humidified incubator with 5% CO2/95% air.
The treated cells were incubated for 4 hours at 37° C. in a humidified incubator with 5% CO2/95% air. At the end of the incubation period, luciferase activity was measured by chemiluminescence using a commercially available kit (LucScreen, Tropix, Inc., Bedford, Mass.) according to the manufacturer's specifications, except that Buffer 1 and Buffer 2 were mixed together in equal proportion prior to the addition of 100 μl of the combined reagents to each well. Chemiluminescence was detected using a luminometer (EG & G Berthold Microlumat LB 96 P, Wallac, Gaithersburg, Md.) with chemiluminescence measured for 1 sec/well. Background luminescence was measured for each well prior to the addition of the LucScreen reagent.
In the 96-well 2-dose format, each compound was tested in duplicate at each dose. […] One plate was used to test a maximum of 22 compounds.
The EC50 of purified human FSH alone was tested in triplicate with each test compound. The doses chosen to test each compound were extrapolated from the initial 2-dose screening process. Along with the test compounds, purified human FSH also was tested in a dose response (0.03, 0.1, 0.3, 1, 3, 10, and 30 ng/ml) for a positive control and quality control. One plate was used for 3 test compounds and the FSH positive control.
Luciferase activity is expressed as relative light units/sec/well. Luciferase activity in antagonist was compared to the appropriate negative and positive controls. For 2-dose testing, results are reported as luciferase activity and are expressed as percent inhibition of the response obtained from the EC50 of FSH.

Where [2] appears, read: 2-dose format, concentration in parentheses 30 μM, inhibition of the response to EC50 of FSH.

`Cc1ccccc1-c1ccc(C(=O)N2Cc3ccc(C(=O)NCCc4ccc5c(c4)OCO5)n3Cc3ccccc32)cc1C` (as salt: hydrochloride) [Example 33]: the melting point lay in the range of 154 to 157 °C. On to `COc1ccccc1-c1ccc(C(=O)N2Cc3ccc(C(=O)NCc4c(Cl)cccc4Oc4ccccc4)n3Cc3ccccc32)cc1` [Example 3, N-(2-CHLORO-6-PHENOXYBENZYL)-10-[(2′-METHOXY-1,1′-BIPHENYL-4-YL)CARBONYL]-10,11-DIHYDRO-5H-PYRROLO[2,1-C][1,4]BENZODIAZEPINE-3-CARBOXAMIDE], for which the inhibition at 30 µM in series [1] (setting [2]) is 8%.

The molecule `COc1ccccc1-c1ccc(C(=O)N2Cc3ccc(C(=O)N[C@@H](CO)c4ccccc4)n3Cc3ccccc32)cc1` [Example 4] had a melting point of 195 to 196 °C. Moreover, the inhibition at 30 µM in series [1] (setting [2]) was 9%.

In the case of `COc1ccccc1-c1ccc(C(=O)N2Cc3ccc(C(=O)N[C@H](CO)c4ccccc4)n3Cc3ccccc32)cc1` [Example 5], the melting point lay in the range of 196 to 197 °C. Besides, in series [1] (setting [2]), the inhibition at 30 µM worked out at 14%.

For the molecule `Cc1ccccc1-c1ccc(C(=O)N2Cc3ccc(C(=O)NCc4ccc(O)cc4)n3Cc3ccccc32)cc1C` [Example 9], the inhibition at 30 µM in series [1] (setting [2]) was determined as 37%. For `Cc1ccccc1-c1ccc(C(=O)N2Cc3ccc(C(=O)NCc4ccc(CN)cc4)n3Cc3ccccc32)cc1C` [Example 11], in series [1], the IC50 came out at 14.9 µM. Still for that read-out and setting: the figure for `Cc1ccccc1-c1ccc(C(=O)N2Cc3ccc(C(=O)NCc4cccc(CN)c4)n3Cc3ccccc32)cc1C` [Example 12] is 11.9 µM. Regarding `Cc1ccccc1-c1ccc(C(=O)N2Cc3ccc(C(=O)NC(C)c4ccccc4)n3Cc3ccccc32)cc1C` (stereo not drawn) [Example 13], the melting point was 118 to 124 °C. Also, the IC50 in series [1] was 8.2 µM. As for `Cc1ccccc1-c1ccc(C(=O)N2Cc3ccc(C(=O)NCc4ccc(OC(F)(F)F)cc4)n3Cc3ccccc32)cc1C` [Example 19], the melting point fell in the range of 147 to 149 °C. Besides, the inhibition at 30 µM in series [1] (setting [2]) is 30%. The molecule `Cc1ccccc1-c1ccc(C(=O)N2Cc3ccc(C(=O)NCc4ccccc4C(F)(F)F)n3Cc3ccccc32)cc1C` [Example 24] showed a melting point of 126 to 128 °C. For the same molecule, in series [1], the IC50 was above 30 µM. Regarding `Cc1ccccc1-c1ccc(C(=O)N2Cc3ccc(C(=O)NCCCc4ccccc4)n3Cc3ccccc32)cc1C` [Example 25], the melting point was in the range of 183 to 184 °C. Also, the inhibition at 30 µM in series [1] (setting [2]) is 59%. In the same order, the values of `Cc1ccccc1-c1ccc(C(=O)N2Cc3ccc(C(=O)NCCc4cccc(Cl)c4)n3Cc3ccccc32)cc1C` [Example 26] are 174 to 176 °C and 62%. `Cc1ccccc1-c1ccc(C(=O)N2Cc3ccc(C(=O)NCCc4ccc(Cl)cc4)n3Cc3ccccc32)cc1C` [Example 27] showed a melting point of 169 to 171 °C. Besides, the inhibition at 30 µM in series [1] (setting [2]) is 52%.

With `COc1ccc(CCNC(=O)c2ccc3n2Cc2ccccc2N(C(=O)c2ccc(-c4ccccc4C)c(C)c2)C3)cc1OC` [Example 28, N-[2-(3,4-DIMETHOXYPHENYL)ETHYL]-10-[(2,2′-DIMETHYL-1,1′-BIPHENYL-4-YL)CARBONYL]-10,11- DIHYDRO-5H-PYRROLO[2,1-C][1,4]BENZODIAZEPINE-3-CARBOXAMIDE], the melting point was 130 to 136 °C. The IC50 in series [1] was above 30 µM. As for `Cc1ccc(CCNC(=O)c2ccc3n2Cc2ccccc2N(C(=O)c2ccc(-c4ccccc4C)c(C)c2)C3)cc1` [Example 29], the melting point lay in the range of 161 to 163 °C. Further, the inhibition at 30 µM in series [1] (setting [2]) turned out to be 52%.

In the case of `COc1ccc(CCNC(=O)c2ccc3n2Cc2ccccc2N(C(=O)c2ccc(-c4ccccc4C)c(C)c2)C3)cc1` [Example 30], the melting point lay in the range of 170 to 172 °C. Further, the inhibition at 30 µM in series [1] (setting [2]) worked out at 62%. In turn, `Cc1ccccc1-c1ccc(C(=O)N2Cc3ccc(C(=O)NC(C)CCc4ccccc4)n3Cc3ccccc32)cc1C` (stereo not drawn) [Example 32] returned a melting point of 152 to 154 °C. Moreover, in series [1], the IC50 is around 30 µM. With `COc1ccc(CNC(=O)c2ccc3n2Cc2ccccc2N(C(=O)c2ccc(-c4ccccc4C)c(OC)c2)C3)cc1` [Example 36, N-(4-METHOXYBENZYL)-10-[(2-METHOXY-2′-METHYL-1,1′-BIPHENYL-4-YL)CARBONYL]-10,11-DIHYDRO-5H-PYRROLO[2,1-C][1,4]BENZODIAZEPINE-3-CARBOXAMIDE], the melting point is 178 to 179 °C. For the same molecule, the inhibition at 30 µM in series [1] (setting [2]) was 60%. For `COc1cc(C(=O)N2Cc3ccc(C(=O)NCc4ccccc4C(F)(F)F)n3Cc3ccccc32)ccc1-c1ccccc1C` [Example 39, 10-[(2-METHOXY-2′-METHYL-1,1′-BIPHENYL-4-YL)CARBONYL]-N-[2-(TRIFLUOROMETHYL)BENZYL]-10,11-DIHYDRO-5H-PYRROLO[2,1-C][1,4]BENZODIAZEPINE-3-CARBOXAMIDE], the melting point was in the range of 165 to 167 °C. In addition, the IC50 in series [1] is above 30 µM. Molecule `COc1cc(C(=O)N2Cc3ccc(C(=O)NCc4ccccc4C)n3Cc3ccccc32)ccc1-c1ccccc1C` [Example 41, 10-[(2-METHOXY-2′-METHYL-1,1′-BIPHENYL-4-YL)CARBONYL]-N-(2-METHYLBENZYL)-10,11-DIHYDRO-5H-PYRROLO[2,1-C][1,4]BENZODIAZEPINE-3-CARBOXAMIDE] came in with a melting point of 204 °C. In series [1] (setting [2]), the inhibition at 30 µM was determined as 62%.

Take `COc1cc(C(=O)N2Cc3ccc(C(=O)NCCc4cccc(Cl)c4)n3Cc3ccccc32)ccc1-c1ccccc1C` [Example 51, N-[2-(3-CHLOROPHENYLETHYL]-10-[(2-METHOXY-2′-METHYL-1,1′-BIPHENYL-4-YL)CARBONYL]-10,11-DIHYDRO-5H-PYRROLO[2,1-C][1,4]BENZODIAZEPINE-3-CARBOXAMIDE]: the IC50 in series [1] is above 30 µM. The molecule `Cc1ccccc1-c1ccc(C(=O)N2Cc3ccc(C(=O)NCCCCc4ccccc4)n3Cc3ccccc32)cc1C` [Example 56] displayed a melting point of 129 to 131 °C.

Regarding `COc1cc(C(=O)N2Cc3ccc(C(=O)NCCc4ccc5c(c4)OCO5)n3Cc3ccccc32)ccc1-c1ccccc1C` [Example 62, N-[2-(1,3-BENZODIOXOL-5-YL)ETHYL]-10-[(2-METHOXY-2′-METHYL-1,1′-BIPHENYL-4-YL)CARBONYL]-10,11-DIHYDRO-5H-PYRROLO[2,1-C][1,4]BENZODIAZEPINE-3-CARBOXAMIDE], the melting point lay in the range of 178 to 179 °C.

For the molecule `Cc1cc(Cl)ccc1OCC(=O)N1Cc2ccc(C(=O)NCc3ccc4c(c3)OCO4)n2Cc2ccccc21` [Example 76], the “CRE % inhibition (μM)” value in series [1] (setting [2]) was 15(30) %.
